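Cultured in 96-well plates, cells were exposed to test compound for 48 hours across five concentrations. Definition used: TGI = concentration required for complete inhibition of growth.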
Experiments:
Experiment in all cases: inhibition of tumour cell growth, NCI panel, 48 h
[1] = tested on: BT-549 breast
[2] = tested on: HCC-2998 colon
[3] = tested on: HL-60(TB) leukemia
[4] = tested on: HOP-62 NSCLC
[5] = tested on: HT29 colon
[6] = tested on: K-562 leukemia
[7] = tested on: KM12 colon
[8] = tested on: MCF7 breast
[9] = tested on: MDA-MB-435
[10] = tested on: MDA-N
[11] = tested on: MOLT-4 leukemia
[12] = tested on: NCI-H23 lung
[13] = tested on: OVCAR-5 ovarian
[14] = tested on: SK-MEL-5 melanoma
[15] = tested on: SN12C renal
[16] = tested on: SNB-75 CNS
[17] = tested on: UO-31 renal

SMILES | TGI [1] [µM] | TGI [2] [µM] | TGI [3] [µM] | TGI [4] [µM] | TGI [5] [µM] | TGI [6] [µM] | TGI [7] [µM] | TGI [8] [µM] | TGI [9] [µM] | TGI [10] [µM] | TGI [11] [µM] | TGI [12] [µM] | TGI [13] [µM] | TGI [14] [µM] | TGI [15] [µM] | TGI [16] [µM] | TGI [17] [µM]
CCOC(=O)C(N)CSC(=O)NC (configuration not stated) | 346 | 644 | 272 | 567 | 399 | 284 | 460 | 425 | 98.4 | 116 | 215 | 469 | 689 | 393 | 213 | 598 | 602
CC1=NC(=Cc2ccc(O)cc2)C(=O)N1n1c(-c2ccccc2)nc2ccccc2c1=O | > 100 | > 100 | > 100 | > 100 | > 100 | > 100 | > 100 | > 100 | > 100 | > 100 | > 100 | > 100 | – | > 100 | > 100 | > 100 | > 100
O=C(NCCCNC(=O)c1ccc2c(O)c(O)ccc2c1)c1ccc2c(O)c(O)ccc2c1 | 35.2 | > 100 | > 100 | 48.1 | > 64.8 | > 78.7 | 39.7 | > 100 | 36.1 | 41.4 | 52.3 | 52.8 | > 74.4 | 46.9 | 52.2 | 42.5 | 65.7
COc1ccc(CCNC2=CC(=O)c3ncccc3C2=O)cc1OC | 2.82 | 4.68 | 10.6 | 7.9 | 4.73 | 8.28 | > 75.2 | 3.01 | 0.924 | 2.45 | 23.7 | 2.58 | 6.63 | 0.793 | 3.59 | 2.13 | 13.1
CCN(CC)c1ccc2cc(-c3nnc(-c4ccccc4)o3)c(=O)oc2c1 | > 100 | > 46.3 | 70.6 | > 74.1 | > 100 | > 100 | > 100 | > 100 | > 100 | > 100 | – | > 100 | > 100 | > 100 | > 100 | 69 | > 100
CC1=C(Br)C(Br)=C(C)S1=O | 40.4 | 34.9 | 18.1 | 42.1 | 45.4 | > 100 | 36.2 | > 100 | 30.9 | 28.7 | 33.4 | > 100 | 37.4 | 22.1 | 30.6 | – | 39.3
O=c1cc(-c2ccccc2)[nH]c2cc3c(cc12)OCO3 | > 100 | 55.6 | 53 | > 90.3 | > 46.4 | > 100 | > 93.1 | > 100 | – | > 100 | > 100 | > 28.6 | > 100 | 51.3 | > 100 | 43.3 | > 100
c1cc(-c2ncc(-c3ccc4c(c3)CCCO4)o2)ccn1 | 53.3 | – | 16 | > 100 | 32 | 7.05 | – | 80.9 | 15.3 | 23.1 | 17.3 | 52.2 | > 100 | 21.2 | > 100 | 53.5 | > 100
CCN1c2nc3ccccc3nc2N(CC)c2nc3ccccc3nc21 | > 100 | > 100 | > 100 | – | > 100 | > 100 | > 100 | > 100 | > 100 | > 100 | > 100 | > 100 | > 100 | > 100 | > 100 | – | > 100
COc1ccc2c3c1O[C@H]1C(O)CCC4(O)[C@@H](C2)NCC[C@]314 (some centres not stated) | > 100 | – | > 100 | > 100 | > 100 | > 100 | > 100 | > 100 | > 100 | > 100 | > 100 | > 100 | > 100 | > 100 | > 100 | – | > 100
O=C(O)c1ccc(NNc2cc(=O)[nH]c(=O)[nH]2)cc1 | > 100 | > 100 | > 100 | > 100 | > 100 | > 100 | > 100 | > 100 | – | > 100 | > 100 | > 100 | > 100 | > 100 | > 100 | > 100 | > 100
Cc1cc(C)cc(C(=N)c2ccccc2Cc2cccc3ccccc23)c1 | > 100 | – | 33.5 | 32.2 | 24.5 | 48.5 | 24 | 32.2 | 32.9 | 54.2 | 30.8 | 34.1 | 53.5 | 31.9 | 34.8 | – | > 100
N#Cc1c(-c2ccccc2)[nH]c2ccccc2c1=O | 69.8 | – | > 100 | 84.9 | > 100 | > 100 | > 100 | > 100 | 59.2 | > 100 | > 100 | – | > 100 | > 100 | > 100 | 38.3 | –
CC(=O)OC1CC2c3cccc4c3C(CC2N(C)C1=O)CN4C(=O)c1ccccc1 (configuration not stated) | 33.1 | 43.5 | 44 | 77.4 | 49.9 | > 100 | 55.8 | 62.9 | 52.6 | 77.1 | > 100 | 55.4 | > 100 | 29.1 | 56.8 | – | 42.1
CC1=C(C(N)=O)C(c2ccncc2)C(C#N)=C2SCC(=O)N12 (configuration not stated) | > 100 | – | > 100 | > 100 | > 100 | > 100 | > 100 | > 100 | > 100 | > 100 | > 100 | > 100 | > 100 | > 100 | > 100 | > 100 | > 100
